Experimental data from patent US9056835B2, “LPA2 receptor-specific benzoic acid derivatives” (University of Tennessee Research Foundation, priority 2012, dated 2015).

Tests used:
[1] = system: Bax; experiment: Immunoblot, Bax translocation; assay type: cell-based, mouse; details: 10 μM
Experimental: Experiments were performed on vector- and LPA2-transduced MEF cells. To measure caspase 3, 7, 8, or 9 activity and DNA fragmentation, cells were plated in 48-well plates (2×10^4 cells/well). To detect PARP-1 cleavage and Bax translocation, 1.5×10^6 cells were plated in 10-cm dishes and cultured overnight in full growth medium. The next morning, the growth medium was replaced by serum-starvation medium and cells were pretreated for 1 h with LPA (1-10 μM), OTP (1-10 μM), GRI977143 (1-10 μM), or vehicle. Caspase activity, DNA fragmentation, PARP-1 cleavage, and Bax translocation were measured 5 h after incubation with 1.7 μM Adriamycin or 24 h after serum withdrawal.
(§1) To detect ligand-induced ERK1/2 activation, vector- and LPA2-transfected MEF cells were serum starved 3 h before exposure to 1 μM LPA, 1 μM OTP, 10 μM GRI977143, or vehicle for 10 min. For ERK1/2 activation and PARP-1 cleavage measurements, cells were harvested in 1× Laemmli sample buffer and separated using 12% Laemmli SDS-polyacrylamide gels. To assess Bax translocation, cell lysates were separated into cytosolic, mitochondrial, and nuclear fractions using the Cell Fractionation Kit-Standard (MitoSciences; Eugene, Oreg.). […] Samples were boiled for 5 min and loaded onto 12% SDS-polyacrylamide gels. Western blotting was carried out as previously described (Valentine et al., 2010). Primary antibodies against pERK1/2, PARP-1, Bax (Cell Signaling Technology; Beverly, Mass.), actin (Sigma-Aldrich), and anti-rabbit-horseradish peroxidase secondary antibodies (Promega) were used according to the instructions of the manufacturer.

[2] = system: ERK1/2; experiment: Immunoblot, ERK1/2 activation; assay type: cell-based, mouse; details: 10 μM, 10 min
Experimental: as §1

[3] = target: LPA2 (Homo sapiens, UniProt Q9HBW0); experiment: Fura-2AM Ca2+ mobilization in LPA2 DKO MEF cells; assay type: cell-based; parameters: expressed in transfected cells; host or cells: mouse embryonic fibroblasts from LPA1/2 double-knockout mice, lentiviral transduction; details: LPA2 Ca2+ mobilization in DKO MEF cells, mean fluorescence ratio
Chain of LPA2 (Q9HBW0 whole entry): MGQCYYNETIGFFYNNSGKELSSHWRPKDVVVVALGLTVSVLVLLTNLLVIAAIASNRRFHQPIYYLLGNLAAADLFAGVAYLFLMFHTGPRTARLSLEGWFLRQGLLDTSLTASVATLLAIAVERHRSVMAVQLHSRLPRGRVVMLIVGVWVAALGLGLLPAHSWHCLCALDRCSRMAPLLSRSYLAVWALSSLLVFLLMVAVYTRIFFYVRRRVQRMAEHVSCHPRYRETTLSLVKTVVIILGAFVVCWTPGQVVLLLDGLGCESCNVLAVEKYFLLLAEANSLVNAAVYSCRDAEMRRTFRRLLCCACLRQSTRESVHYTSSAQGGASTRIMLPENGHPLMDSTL
Experimental: (§2) Fluorescence was read every 3.42 seconds for a total of 70 seconds at Ex/Emλ of 340/510 nm and 380/510 nm. Data (relative fluorescence) was then recorded as a mean fluorescence ratio value of the triplicates for each concentration. Graph Pad Prism version 5.0a was then used to fit a non-linear regression curve in a variable slope model (A) to determine the EC50, Emax, and curve fit (R^2)(B).
Mouse embryonic fibroblast (MEF) cells used in this study isolated from LPA1/2 double knock out (LPA2-DKO) mice {Lin, 2007 #132}. These MEF express LPA4/5/6 receptors endogenously at lower levels but completely lack LPA1/2/3 receptor subtypes. The human LPA2 receptor was reintroduced into these MEF cells by lentiviral transduction, which are designated LPA2 DKO MEF {Lin, 2007 #132}. Empty vector-transduced MEF cells, designates as EV DKO MEF, were used as a control. Cells were cultured in a DMEM supplemented with 10% v/v fetal bovine serum (FBS), 2 mM L-glutamine, 100 U/ml penicillin, and 100 μg/mL streptomycin. During serum starvation, the growth medium was replaced with DMEM containing 0.1% (w/v) BSA.
as §2

Row | SMILES | Bax translocation to the mitochondria ([1]; LPA2-transduced MEF, Adriamycin) | cytosolic Bax level ([1]; serum withdrawal model) | Bax translocation ([1]; vector-transduced MEF, Adriamycin) | increase in ERK1/2 activation ([2]; LPA2-transduced MEF) [fold] | ERK1/2 basal activity ([2]; vector-transduced MEF) | Emax (MFR) [3] [MFR]
1 | O=C(O)c1ccccc1SCCCN1C(=O)c2cccc3cccc(c23)C1=O [GRI977143] | maintained a high level of Bax in the cytoplasm | did not detect any change in cytosolic Bax level | failed to reduce Bax translocation | 9.6 | did not alter the basal activity | 
2 | CCCCCCCC/C=C\CCCCCCCC(=O)OC[C@@H](O)COP(=O)(O)O [LPA 18:1, Lysophosphatidic acid (18:1)] |  |  |  |  |  | 1.2
